Source: PubChem BioAssay AID2060494 (Molecular Pharmacology Branch, DTP, NCI, 2025)

System: 435261-313-R-J1-PDC complex spheroid viability
Assay: Anticancer human tumor 435261-313-R-J1-PDC patient-derived colon adenocarcinoma cell line growth inhibition [GQUAD]
Conditions: for IC50: curve of first compound; for viability, T/C: stronger effect = lower value
Method in brief: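 Tumor cells were grown as complex spheroids with HUVEC endothelial cells and mesenchymal stem cells as stroma. G-quadruplex stabilizers were combined with targeted agents over half-log dilutions from near the clinical Cmax, or from 10 microM.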

[1] = second compound 0.0316 µM, first compound 0.0316 µM
[2] = second compound 0.0316 µM, first compound 0.1 µM
[3] = second compound 0.0316 µM, first compound 0.316 µM
[4] = second compound 0.0316 µM, first compound 1 µM
[5] = second compound 0.0316 µM, first compound 3.16 µM
[6] = second compound 0.0316 µM, first compound 10 µM
[7] = second compound 0.1 µM, first compound 0.0316 µM
[8] = second compound 0.1 µM, first compound 0.1 µM
[9] = second compound 0.1 µM, first compound 0.316 µM
[10] = second compound 0.1 µM, first compound 1 µM
[11] = second compound 0.1 µM, first compound 3.16 µM
[12] = second compound 0.1 µM, first compound 10 µM
[13] = second compound 0.316 µM, first compound 0.0316 µM
[14] = second compound 0.316 µM, first compound 0.1 µM
[15] = second compound 0.316 µM, first compound 0.316 µM
[16] = second compound 0.316 µM, first compound 1 µM
[17] = second compound 0.316 µM, first compound 3.16 µM
[18] = second compound 0.316 µM, first compound 10 µM
[19] = second compound 1 µM, first compound 0.0316 µM
[20] = second compound 1 µM, first compound 0.1 µM
[21] = second compound 1 µM, first compound 0.316 µM
[22] = second compound 1 µM, first compound 1 µM
[23] = second compound 1 µM, first compound 3.16 µM
[24] = second compound 1 µM, first compound 10 µM
[25] = second compound 3.16 µM, first compound 0.0316 µM
[26] = second compound 3.16 µM, first compound 0.1 µM
[27] = second compound 3.16 µM, first compound 0.316 µM
[28] = second compound 3.16 µM, first compound 1 µM
[29] = second compound 3.16 µM, first compound 3.16 µM
[30] = second compound 3.16 µM, first compound 10 µM
[31] = second compound 10 µM, first compound 0.0316 µM
[32] = second compound 10 µM, first compound 0.1 µM
[33] = second compound 10 µM, first compound 0.316 µM
[34] = second compound 10 µM, first compound 1 µM
[35] = second compound 10 µM, first compound 3.16 µM
[36] = second compound 10 µM, first compound 10 µM
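Note: spheroids exposed to the agents for seven days before readout.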
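Throughout, for viability, T/C: percent of vehicle control viability with DMSO wells as 100%.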

Compound O=c1[nH]cc(F)c(=O)[nH]1 + Cc1[nH]c2ccc(F)cc2c1-c1nc2c3cccnc3c3ncccc3c2[nH]1 has an IC50 (second compound 0.0316 µM) of over 10000 nM, an IC50 (second compound 0.1 µM) of over 10000 nM and an IC50 (second compound 0.316 µM) of over 10000 nM. It also gave an IC50 (second compound 1 µM) of 464 nM, an IC50 (second compound 3.16 µM) of under 31.6 nM and an IC50 (second compound 10 µM) of under 31.6 nM. It also gave a viability, T/C [1] of 112%, a viability, T/C [2] of 72.3% and a viability, T/C [3] of 80.1%. It also gave a viability, T/C [4] of 74.5%, a viability, T/C [5] of 66.2% and a viability, T/C [6] of 64.9%. For the same compound, the viability, T/C [7] was 94.7%, the viability, T/C [8] was 84.2% and the viability, T/C [9] was 62%. It also gave a viability, T/C [10] of 72.1%, a viability, T/C [11] of 64.1% and a viability, T/C [12] of 61.3%. It also gave a viability, T/C [13] of 78.5%, a viability, T/C [14] of 66.5% and a viability, T/C [15] of 52.8%. For the same compound, the viability, T/C [16] was 65.3%, the viability, T/C [17] was 49.1% and the viability, T/C [18] was 56%. The viability, T/C [19] was 53.2%, the viability, T/C [20] was 75% and the viability, T/C [21] was 51.9%. The viability, T/C [22] was 47.9%, the viability, T/C [23] was 50.2% and the viability, T/C [24] was 40.6%. It also gave a viability, T/C [25] of 34.2%, a viability, T/C [26] of 27.4% and a viability, T/C [27] of 25.1%. The viability, T/C [28] was 26.7%, the viability, T/C [29] was 24.1% and the viability, T/C [30] was 27.7%. For the same compound, the viability, T/C [31] was 17.9%, the viability, T/C [32] was 25.7% and the viability, T/C [33] was 19%. It also gave a viability, T/C [34] of 19.3%, a viability, T/C [35] of 16.4% and a viability, T/C [36] of 21.3%.
CC1COCCN1c1cc(-c2ccnn2C)c2ccnc(-c3ccn[nH]3)c2n1 (stereo not drawn) + Cc1cnc(CNC(=O)c2c(=O)c3ccc(N4CCCN(C)CC4)nc3n3c2sc2ccccc23)cn1 gave an IC50 (second compound 0.0316 µM) of 295 nM, an IC50 (second compound 0.1 µM) of 425 nM and an IC50 (second compound 0.316 µM) of 318 nM. For the same compound, the IC50 (second compound 1 µM) was under 31.6 nM, the IC50 (second compound 3.16 µM) was under 31.6 nM and the IC50 (second compound 10 µM) was under 31.6 nM. For the same compound, the viability, T/C [1] was 72.1%, the viability, T/C [2] was 54.9% and the viability, T/C [3] was 54.7%. The viability, T/C [4] was 35.4%, the viability, T/C [5] was 36.2% and the viability, T/C [6] was 23.9%. For the same compound, the viability, T/C [7] was 61.8%, the viability, T/C [8] was 59.4% and the viability, T/C [9] was 52.4%. It also gave a viability, T/C [10] of 42.2%, a viability, T/C [11] of 30.6% and a viability, T/C [12] of 21.3%. For the same compound, the viability, T/C [13] was 51.8%, the viability, T/C [14] was 57.6% and the viability, T/C [15] was 50.5%. It also gave a viability, T/C [16] of 37.9%, a viability, T/C [17] of 26.5% and a viability, T/C [18] of 15.1%. The viability, T/C [19] was 36.5%, the viability, T/C [20] was 41.9% and the viability, T/C [21] was 34.6%. The viability, T/C [22] was 26.3%, the viability, T/C [23] was 13.4% and the viability, T/C [24] was 9.95%. It also gave a viability, T/C [25] of 22.4%, a viability, T/C [26] of 21.2% and a viability, T/C [27] of 11.5%. For the same compound, the viability, T/C [28] was 4.04%, the viability, T/C [29] was 3.7% and the viability, T/C [30] was 2.53%. The viability, T/C [31] was 0.11%, the viability, T/C [32] was 0.14% and the viability, T/C [33] was 0.18%. For the same compound, the viability, T/C [34] was 0.15%, the viability, T/C [35] was 0.16% and the viability, T/C [36] was 0.15%.
CC1COCCN1c1cc(C2(S(C)(=N)=O)CC2)nc(-c2ccnc3[nH]ccc23)n1 (stereo not drawn) + Cc1cnc(CNC(=O)c2c(=O)c3ccc(N4CCCN(C)CC4)nc3n3c2sc2ccccc23)cn1 gave an IC50 (second compound 0.0316 µM) of 3840 nM, an IC50 (second compound 0.1 µM) of 3200 nM and an IC50 (second compound 0.316 µM) of 2350 nM. It also gave an IC50 (second compound 1 µM) of under 31.6 nM, an IC50 (second compound 3.16 µM) of under 31.6 nM and an IC50 (second compound 10 µM) of under 31.6 nM. It also gave a viability, T/C [1] of 52.9%, a viability, T/C [2] of 57.6% and a viability, T/C [3] of 66.8%. The viability, T/C [4] was 53.9%, the viability, T/C [5] was 49.2% and the viability, T/C [6] was 42.7%. For the same compound, the viability, T/C [7] was 41.4%, the viability, T/C [8] was 66.6% and the viability, T/C [9] was 46.2%. For the same compound, the viability, T/C [10] was 45.9%, the viability, T/C [11] was 50.6% and the viability, T/C [12] was 38.8%. The viability, T/C [13] was 53.5%, the viability, T/C [14] was 55.8% and the viability, T/C [15] was 60.6%. It also gave a viability, T/C [16] of 55.1%, a viability, T/C [17] of 44.9% and a viability, T/C [18] of 40.5%. It also gave a viability, T/C [19] of 31.8%, a viability, T/C [20] of 37.9% and a viability, T/C [21] of 35.9%. The viability, T/C [22] was 41.5%, the viability, T/C [23] was 31.3% and the viability, T/C [24] was 26%. For the same compound, the viability, T/C [25] was 18.1%, the viability, T/C [26] was 10.2% and the viability, T/C [27] was 21%. For the same compound, the viability, T/C [28] was 18.6%, the viability, T/C [29] was 17.3% and the viability, T/C [30] was 5.09%. It also gave a viability, T/C [31] of 0.26%, a viability, T/C [32] of 0.15% and a viability, T/C [33] of 0.17%. The viability, T/C [34] was 0.18%, the viability, T/C [35] was 0.2% and the viability, T/C [36] was 0.21%.
COc1ccc([C@@H](O)c2cc(-c3ncnc4cc(N5CCOCC5)ccc34)c(F)cc2Cl)nn1 + Cc1cnc(CNC(=O)c2c(=O)c3ccc(N4CCCN(C)CC4)nc3n3c2sc2ccccc23)cn1 showed an IC50 (second compound 0.0316 µM) of 631 nM, an IC50 (second compound 0.1 µM) of 392 nM and an IC50 (second compound 0.316 µM) of 157 nM. It also gave an IC50 (second compound 1 µM) of under 31.6 nM, an IC50 (second compound 3.16 µM) of under 31.6 nM and an IC50 (second compound 10 µM) of under 31.6 nM. For the same compound, the viability, T/C [1] was 59.5%, the viability, T/C [2] was 67.4% and the viability, T/C [3] was 71.8%. The viability, T/C [4] was 39.2%, the viability, T/C [5] was 27.8% and the viability, T/C [6] was 20.3%. It also gave a viability, T/C [7] of 49.8%, a viability, T/C [8] of 65% and a viability, T/C [9] of 48.9%. For the same compound, the viability, T/C [10] was 41.4%, the viability, T/C [11] was 26.3% and the viability, T/C [12] was 16.8%. The viability, T/C [13] was 47.6%, the viability, T/C [14] was 60.9% and the viability, T/C [15] was 44.6%. For the same compound, the viability, T/C [16] was 34.8%, the viability, T/C [17] was 25.6% and the viability, T/C [18] was 13.4%. For the same compound, the viability, T/C [19] was 32.3%, the viability, T/C [20] was 42.6% and the viability, T/C [21] was 34.8%. For the same compound, the viability, T/C [22] was 28.4%, the viability, T/C [23] was 17.2% and the viability, T/C [24] was 5.89%. The viability, T/C [25] was 5.04%, the viability, T/C [26] was 14.9% and the viability, T/C [27] was 16.5%. The viability, T/C [28] was 0.16%, the viability, T/C [29] was 0.14% and the viability, T/C [30] was 0.29%. It also gave a viability, T/C [31] of 0.11%, a viability, T/C [32] of 0.16% and a viability, T/C [33] of 0.16%. The viability, T/C [34] was 0.2%, the viability, T/C [35] was 0.17% and the viability, T/C [36] was 0.15%.
